Legend:
[1] = biological target: T1, mitochondrial pyruvate carrier (MPC) (Homo sapiens, UniProt O95563+Q9Y5U8); experiment: Bret IC50, inhibitory activity against MPC; type: cell-based
T1 sequence (Q9Y5U8 1-109): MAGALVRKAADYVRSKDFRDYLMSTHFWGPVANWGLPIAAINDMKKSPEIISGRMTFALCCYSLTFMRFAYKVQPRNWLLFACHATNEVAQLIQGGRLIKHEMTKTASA
T1 sequence (O95563 1-127): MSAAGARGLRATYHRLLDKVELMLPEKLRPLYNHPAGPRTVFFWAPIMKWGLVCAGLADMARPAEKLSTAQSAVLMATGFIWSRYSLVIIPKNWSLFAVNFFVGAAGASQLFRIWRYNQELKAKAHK
Source text: (§1) The inhibition of mitochondrial pyruvate carrier (MPC) by compounds of the invention have been tested as follows and their inhibitory activity was expressed as IC50s values.
Table 2 below presents the IC50s of the compounds of the invention.

[2] = biological target: T1, mitochondrial pyruvate carrier (MPC); experiment: Seahorse Xfe24 pyruvate-dependent OCR in HeLa cells; type: cell-based; conditions: pyruvate-dependent OCR in presence of fCCP
Description: as §1
Cells are plated in the customized Seahorse plates. For HeLa cells, seeding is at 4×10^4 cells/well in […] DMEM, 10% FBS, 1% pen/strep/glutamine. 3 wells are left blank (medium alone) for internal calibration. The assay cartridge is hydrated overnight at 37° C. in 1 ml/well XF Calibrant Solution.
Since 50 μl of compound of the invention will be injected into 450 μl washed cells, compounds are made up in assay medium at 10× the final desired concentration
For dose response analyses, compounds are tested at final concentrations 30, 5, 0.83, 0.14, 0.023 μM (1:6 serial dilutions from […])
Positive control: […] (the parent hit compound which gave rise to the actual series)
Negative control: Assay medium alone.
The seahorse reagent plate is prepared as follows and transfered to the Xfe24 analyser for the calibration step:
The medium is almost completely removed from the well without allowing cells to dry Cells are washed twice with 300 μl Assay Medium. 450 μl fresh Assay Medium is added to each well. The plate is transferred to the Xfe24 analyser for measurement of pyruvate-dependent OCR. All values are normalized to the initial basal respiration rate in each well which is measured prior to addition of compounds and designated as 100%. IC50 determination is based on the average of the 3 measurements made in the presence of fCCP, taking 30 μM parent hit compound as maximal inhibition and PBS/Ca/Mg as zero inhibition.

[3] = test system: CD8 T cells (OT1 splenocytes); experiment: In vitro priming of CD8 T cells (OT1 splenocytes), memory marker expression by flow cytometry; type: cell-based, mouse; conditions: day 7, highest doses
Description: OT1 splenocytes were cultured for 3 days at a concentration of 10^6 cells per mL in RPMI medium (Gibco 61870-01) supplemented with 10% FBS, (Gibco 10270-106), 1% Penicillin/Streptomycin (Gibco 15070-063), 50 μM ß-mercaptoethanol, 1% HEPES (Gibco 15630-080), 1× Non-essential amino acids (Gibco 11140-035), 1% L-glutamine (Gibco 25030-081), 1 mM Sodium Pyruvate (Gibco 11360-039). Cells were additionally supplemented with hIL-2 100 U/ml (Glaxo-IMB), ovalbumin N4 peptide (257-264) 1 μg/ml (model peptide antigen from ovalbumin) and either different concentrations of Compound 45 or 47 or with their solvent DMSO as a control. At day 3, splenocytes were collected, washed and split, and cells were cultured for 4 additional days with 100 U/ml hIL-2 and hIL-7 (Peprotech 200-07) supplemented either with Compound 45 or 47 or DMSO. At day 7, flow cytometry analyses were performed for surface marker expression.
To evaluate the effects of MPC inhibition on T cell differentiation, OTI splenocytes were cultured in the presence of 1 μg/ml ovalbumin-derived N4 peptide, 100 IU/ml recombinant human IL-2 (rhIL-2) and the MPC inhibitors Compound 45 or 47 or control DMSO for 3 days. The cells were cultured for 4 more days in the presence of 100 IU/ml IL-2 and 10 ng/ml rhIL-7 (FIG. 1A) and the inhibitors or DMSO. When analyzing the surface expression of the central memory marker CD62L (FIG. 1B) and the pro-survival receptor CD127 (FIG. 1C) by flow cytometry on day 7, an increase in cells treated with the highest doses of compounds of the invention was observed compared to DMSO.

SMILES	IC50 [1]	IC50 [2]	also measured
CCCc1cc(=O)[nH]c2nnc(SCc3cc(F)cc(F)c3)n12 [Compound 3, 3-[(3,5-difluorobenzyl)sulfanyl]-5-propyl[1,2,4]triazolo[4,3-a]pyrimidin-7 (8H)-one]	2200 nM		
CCCc1cc(=O)[nH]c2nnc(SCc3cccc(C#N)c3)n12 [Compound 7, 3-{[(7-oxo-5-propyl-7,8-dihydro[1,2,4]triazolo[4,3-a]pyrimidin-3-yl)sulfanyl]methyl}benzonitrile]	10200 nM		
CCCc1cc(=O)[nH]c2nnc(SCc3cc(F)ccc3C#N)n12 [Compound 8, 4-fluoro-2-{[(7-oxo-5-propyl-7,8-dihydro[1,2,4]triazolo[4,3-a]pyrimidin-3-yl)sulfanyl]methyl}benzonitrile]	5390 nM		
CCCc1cc(=O)[nH]c2nnc(SCc3cc(F)ccc3OC)n12 [Compound 9, 3-[(5-fluoro-2-methoxybenzyl)sulfanyl]-5-propyl[1,2,4]triazolo[4,3-a]pyrimidin-7 (8H)-one]	878 nM	185 nM	
CCCc1cc(=O)[nH]c2nnc(SCc3cc(F)ccc3C)n12 [Compound 12, 3-[(5-fluoro-2-methylbenzyl)sulfanyl]-5-propyl[1,2,4]triazolo[4,3-a]pyrimidin-7 (8H)-one]	561 nM	158 nM	
CCCc1cc(=O)[nH]c2nnc(SCCc3ccccc3)n12 [Compound 14, 3-[(2-phenylethyl)sulfanyl]-5-propyl[1,2,4]triazolo[4,3-a]pyrimidin-7 (8H)-one]	1750 nM		
CCCc1cc(=O)[nH]c2nnc(SCc3ccoc3)n12 [Compound 15, 3-[(furan-3-ylmethyl)sulfanyl]-5-propyl[1,2,4]triazolo[4,3-a]pyrimidin-7 (8H)-one]	2090 nM		
CCCc1cc(=O)[nH]c2nnc(SCc3cccc(OC)c3)n12 [Compound 17, 3-[(3-methoxybenzyl)sulfanyl]-5-propyl[1,2,4]triazolo[4,3-a]pyrimidin-7 (8H)-one]	2030 nM		
CCCc1cc(=O)[nH]c2nnc(SCc3ccc(C#N)cc3)n12 [Compound 18, 4-{[(7-oxo-5-propyl-7,8-dihydro[1,2,4]triazolo[4,3-a]pyrimidin-3-yl)sulfanyl]methyl}benzonitrile]	4210 nM		
CCCc1cc(=O)[nH]c2nnc(SCc3ccc4occc4c3)n12 [Compound 19, 3-[(1-benzofuran-5-ylmethyl)sulfanyl]-5-propyl[1,2,4]triazolo[4,3-a]pyrimidin-7 (8H)-one]	3480 nM		
CCCc1cc(=O)[nH]c2nnc(SCc3c(C)cccc3C)n12 [Compound 25, 3-[(2,6-dimethylbenzyl)sulfanyl]-5-propyl[1,2,4]triazolo[4,3-a]pyrimidin-7 (8H)-one]	593 nM	171 nM	
Cc1cc(=O)[nH]c2nnc(SCc3cc(F)ccc3F)n12 [Compound 29, 3-[(2,5-difluorobenzyl)sulfanyl]-5-methyl[1,2,4]triazolo[4,3-a]pyrimidin-7 (8H)-one]	5810 nM		
O=c1cc(CCOCc2ccccc2)n2c(SCc3cc(F)ccc3F)nnc2[nH]1 [Compound 30, 5-[2-(benzyloxy)ethyl]-3-[(2,5-difluorobenzyl)sulfanyl][1,2,4]triazolo[4,3-a]pyrimidin-7 (8H)-one]	943 nM	1650 nM	
COCc1cc(=O)[nH]c2nnc(SCc3cc(F)ccc3F)n12 [Compound 31, 3-[(2,5-difluorobenzyl)sulfanyl]-5-(methoxymethyl) [1,2,4]triazolo[4,3-a]pyrimidin-7 (8H)-one]	5660 nM		
O=c1cc(CCOCc2ccccc2Cl)n2c(SCc3cc(F)ccc3F)nnc2[nH]1 [Compound 33, 5-{2-[(2-chlorobenzyl)oxy]ethyl}-3-[(2,5-difluorobenzyl)sulfanyl][1,2,4]triazolo[4,3-a]pyrimidin-7 (8H)-one]	1320 nM	1040 nM	
O=c1cc(C2CC2)n2c(SCc3c(F)cccc3Cl)nnc2[nH]1 [Compound 39, 3-[(2-chloro-6-fluorobenzyl)sulfanyl]-5-cyclopropyl[1,2,4]triazolo[4,3-a]pyrimidin-7 (8H)-one]	593 nM		
CC(C)Cc1cc(=O)[nH]c2nnc(SCc3c(F)cccc3Cl)n12 [Compound 40, 3-[(2-chloro-6-fluorobenzyl)sulfanyl]-5-(2-methylpropyl) [1,2,4]triazolo[4,3-a]pyrimidin-7 (8H)-one]	391 nM	218 nM	
O=c1cc(CC2CC2)n2c(SCc3c(F)cccc3Cl)nnc2[nH]1 [Compound 41, 3-[(2-chloro-6-fluorobenzyl)sulfanyl]-5-(cyclopropylmethyl) [1,2,4]triazolo[4,3-a]pyrimidin-7 (8H)-one]	129 nM		
O=c1cc(CCOCc2ccccc2)n2c(SCc3c(F)cccc3Cl)n[nH]c2n1 [Compound 43, 5-[2-(benzyloxy)ethyl]-3-[(2-chloro-6-fluorobenzyl)sulfanyl][1,2,4]triazolo[4,3-a]pyrimidin-7 (1H)-one]	814 nM	289 nM	
N#Cc1ccc(CSc2nnc3[nH]c(=O)cc(Cc4ccccc4)n23)cc1 [Compound 46, 4-{[(5-benzyl-7-oxo-7,8-dihydro[1,2,4]triazolo[4,3-a]pyrimidin-3-yl)sulfanyl]methyl}benzonitrile]	4690 nM		
CCCc1cc(=O)[nH]c2nnc(Sc3ccccc3)n12 [Compound 47, 3-(phenylsulfanyl)-5-propyl[1,2,4]triazolo[4,3-a]pyrimidin-7 (8H)-one]	167 nM	184 nM	cells positive for central memory marker CD62L ([3]; vs DMSO (FIG. 1B)): increase; cells positive for pro-survival receptor CD127 ([3]; vs DMSO (FIG. 1C)): increase
CCCc1c(C)c(=O)[nH]c2nnc(SCc3c(F)cccc3Cl)n12 [Compound 48, 3-[(2-chloro-6-fluorobenzyl)sulfanyl]-6-methyl-5-propyl[1,2,4]triazolo[4,3-a]pyrimidin-7 (8H)-one]	873 nM		
CCCc1cc(=O)[nH]c2nnc(S(=O)(=O)Cc3c(F)cccc3Cl)n12 [Compound 50, 3-[(2-chloro-6-fluorobenzyl)sulfonyl]-5-propyl[1,2,4]triazolo[4,3-a]pyrimidin-7 (8H)-one]	11200 nM		
CCCc1cc(=O)[nH]c2nnc(CCc3ccccc3)n12 [Compound 51, 3-(2-phenylethyl)-5-propyl[1,2,4]triazolo[4,3-a]pyrimidin-7 (8H)-one]	3650 nM		
Cc1cc(=O)[nH]c2nnc(SCc3ccc(Cl)cc3)n12 [Compound 85, 3-[(4-chlorobenzyl)sulfanyl]-5-methyl[1,2,4]triazolo[4,3-a]pyrimidin-7 (8H)-one]	12500 nM		
CCCc1cc(=O)[nH]c2nnc(SCc3cccc4ccccc34)n12 [Compound 90, 3-[(naphthalen-1-ylmethyl)sulfanyl]-5-propyl[1,2,4]triazolo[4,3-a]pyrimidin-7 (8H)-one]	2500 nM		

— patent publication US20240360143A1, “[1,2,4]TRIAZOLO[4,3-A]PYRIMIDIN-7(8H)-ONE AS MITOCHONDRIAL PYRUVATE CARRIER INHIBITORS FOR USE IN THE TREATMENT OF CANCER” (MPC THERAPEUTICS SA, priority 2021, published 2024)
